Data: ChEMBL document CHEMBL2346614, “Discovery of thienopyrimidine-based inhibitors of the human farnesyl pyrophosphate synthase--parallel synthesis of analogs via a trimethylsilyl ylidene intermediate” (Bioorg Med Chem, 2013)
pIC50: −log10 of the molar value.

How the values were obtained:
[1] = biological target: T1, Farnesyl pyrophosphate synthase (Homo sapiens) (UniProt P14324); assay: Inhibition of human recombinant N-terminal His6-tagged FPPS transfected in Escherichia coli BL21 (DE3) cells using GPP and [3H]-IPP as substrate at 10 uM incubated for 10 mins prior to substrate addition measured after 20 mins by liquid scintillation counting analysis; format: biochemical
T1 sequence (whole entry): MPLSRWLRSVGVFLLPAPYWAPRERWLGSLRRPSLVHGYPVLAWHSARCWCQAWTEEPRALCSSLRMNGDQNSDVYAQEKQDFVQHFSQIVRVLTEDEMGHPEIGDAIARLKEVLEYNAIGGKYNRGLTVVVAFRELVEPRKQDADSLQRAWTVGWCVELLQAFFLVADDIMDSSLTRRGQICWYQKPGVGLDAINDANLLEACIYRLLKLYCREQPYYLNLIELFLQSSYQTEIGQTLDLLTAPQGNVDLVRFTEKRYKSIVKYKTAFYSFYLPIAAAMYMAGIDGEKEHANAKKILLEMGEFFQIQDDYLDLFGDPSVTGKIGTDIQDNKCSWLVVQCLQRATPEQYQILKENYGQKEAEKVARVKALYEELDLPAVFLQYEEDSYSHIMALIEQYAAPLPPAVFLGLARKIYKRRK

[2] = biological target: T2, Farnesyl pyrophosphate synthase (Homo sapiens, UniProt P14324); assay: Inhibition of human recombinant N-terminal His6-tagged FPPS transfected in Escherichia coli BL21 (DE3) cells using GPP and [3H]-IPP as substrate incubated for 10 mins prior to substrate addition measured after 20 mins by liquid scintillation counting analysis
T2 sequence (P14324 whole entry): T1 sequence (whole entry)

[3] = biological target: T2, Farnesyl pyrophosphate synthase; assay: Inhibition of human FPPS

inhibition [1] [%] | Structure (SMILES) | other results
75 | O=P(O)(O)C(Nc1nc(-c2ccccc2)nc2sccc12)P(=O)(O)O | –
– | O=P(O)(O)C(Nc1ncnc2sc(-c3ccc4ccccc4c3)cc12)P(=O)(O)O | pIC50 [2]: 6.60
< 20 | O=P(O)(O)C(Nc1ncnc2scc(-c3ccccc3)c12)P(=O)(O)O | –
– | Cc1ccc(-c2cc3c(NC(P(=O)(O)O)P(=O)(O)O)ncnc3s2)cc1 | pIC50 [2]: 6.41
– | CC(C)=CCC/C(C)=C/CC(C/C=C(\C)CCC=C(C)C)(P(=O)(O)O)P(=O)(O)O [DIGERANYL BISPHOSPHONATE] | pIC50 [3]: < 5.00
75 | O=P(O)(O)C(Nc1ncnc2sccc12)P(=O)(O)O | –
75 | O=P(O)(O)C(Nc1ncnc2sc(-c3ccccc3)cc12)P(=O)(O)O | –
